Source: patent US20090186361A1, “METHODS OF PREDICTING THE PHARMACEUTICAL TOXICITY OF TAXANES” (priority 2008, published 2009)

Tests used:
Assay type in all cases: in vivo, human
[1] = Regression / mixed model of Toxicity Index on demographic variables and received dose
Procedure: (§1) A preliminary data analysis focused on the relationship between the Toxicity Index and the recipient subjects' demographic/genetic information. […] Univariate linear regression analysis was conducted first to find significant covariates in predicting the Toxicity Index in one of five cycles, then multivariable analysis was used to determine the best model in fitting the data. A mixed model for repeated measurement was implemented in modeling Toxicity Index in the first five cycles, and also in all cycles. Autoregressive covariance structure was used in the mixed model. SAS and Minitab were used in the analysis.
(§2) Covariates in the analysis included recoded binary demographic variables (sex, race, site, grade, stage) and recoded binary genetic variables.
(§3) Multivariable regression analysis was used to find the best model in predicting the Toxicity Index in each of the first five cycles.
(§4) A mixed model for repeated measurements was implemented to find the best model in fitting the longitudinal data. Autoregressive covariance structure was used in the mixed model. Toxicity Indexes in the first five cycles were included in the analysis.
(§5) To model Toxicity Indexes in all 21 cycles, a mixed model was used to find the best model. For the paclitaxel, Received dose and MAPT_H14 were significant fixed effects in predicting the longitudinal Toxicity Index in all cycles.

MAPT = assay: Regression / mixed model of Toxicity Index on MAPT SNP genotype of recipient subjects; details: for Fixed effect Estimate, COL6_2 (MAPT_H1): TT=1, CC=0
From the text: (§6) The GENOMELAB SNPSTREAM™ (Beckman) was utilized to accommodate up to 92,000 genotypes per day. This automated, multiplexed system can process up to 48 SNPs in each well of an arrayed 384-well plate. The SNPSTREAM™ operates at a consistent cost per genotype or per sample, regardless of run throughput, allowing users to cost-effectively zero in on targets with low-throughput studies as well as conduct high-throughput analyses.
(§7) The SNPSTREAM™ Genotyping System features a protocol with three steps. The technology is based on single-based primer extension technology. The system's high sensitivity delivers results using as little as 2 ng of genomic DNA. SNPWARE™ reagent kits were used. The kits included ready-to-use reagents, all performed in the original PCR plate according to the manufacturer's instructions, and incorporated herein by reference in its entirety.
(§8) Multiplexed reactions were spatially resolved on a SNPWARE™ Tag Array plate. Each of the 384 wells in a plate contained 16 or 52 unique oligonucleotides of a known sequence, or tag. Each tag on the plate was complementary to one of the tags of the 12 or 48 extension primers, plus four controls to ensure accuracy. After transfer to the Tag Array plate, each SNP was hybridized to its complementary tag. SNPs were then identified by their position in the well.
(§9) The process involved a multiplex PCR followed by an annealing reaction of the oligonucleotide to the specific PCR product. Next the oligonucleotide was extended by a single base which was fluorescently labeled with a terminating NTP and finally detected by two-colored fluorescence specific for the allele.
(§10) For each SNP, the -PCRU and -PCRL primers were first used to amplify a relevant DNA fragment surrounding the target SNP site. The components per reaction were: H2O, 3.0 μl; 10× PCR Buffer II, 0.5 μl; MgCl2 (25 mM), 1.0 μl; dNTPs (2.5 mM each), 0.18 μl; PCR Primer Pool (2.5 μM each), 0.1 μl; AMPLITAQ GOLD™ (5 U/μl), 0.125 μl for a total volume of 5.0 μl per reaction.
(§11) Primer -SNPU or SNPL was then used for single-base extension reaction. The thermocycler program was as follows: Step 1: 96° C. for 3 min; Step 2: 94° C. for 20 sec; Step 3: 40° C. for 11 sec; and Step 5: return to step 2 59 times, and finally to hold at 4° C.
as §1, §2, §3, §4, §5

CYP2C8 gene locus = assay: Regression of Toxicity Index on CYP2C8 SNP genotype of recipient subjects
Procedure: The […] ™ Genotyping System features a protocol with three steps. The technology is based on single-based primer extension technology. […] SNPWARE™ reagent kits were used.
For each SNP, the -PCRU and -PCRL primers were first used to amplify a relevant DNA fragment surrounding the target SNP site. The components per reaction were: H2O, 3.0 μl; 10× PCR Buffer II, 0.5 μl; MgCl2 (25 mM), 1.0 μl; dNTPs (2.5 mM each), 0.18 μl; PCR Primer Pool (2.5 μM each), 0.1 μl; [sequence] GOLD™ (5 U/μl), 0.125 μl for a total volume of 5.0 μl per reaction.

TUBB gene locus = assay: Regression of Toxicity Index on TUBB SNP genotype of recipient subjects
From the text: as §6, §7, §8, §9, §10, §11
Thirty (30) recipient subjects already receiving treatment with paclitaxel were screened for the presence of SNPs in the CYP2C8 and TUBB loci. Clinical data from each of the recipient subjects was used to first calculate a Toxicity Index (TI) value for each individual according to the method presented in Example 1, above. The genotype for each recipient subject with regard to the SNPs of CYP2C8 and TUBB was determined using SNPWARE™ and single base extension according to the methods of Example 4, above.
For the CYP2C8 locus, two genotypes for the rsl 058932 SNP (as shown in FIG. 1) were considered: heterozygous TC and homozygous CC. For the TUBB locus (SNP rs3132584), the heterozygous SNP CA, and the combined homozygous AA and CC variants, were considered.
as §1, §2, §3

For `CC(=O)O[C@@]12CO[C@@H]1C[C@H](O)[C@@]1(C)C(=O)[C@H](O)C3=C(C)[C@@H](OC(=O)[C@H](O)[C@@H](NC(=O)OC(C)(C)C)c4ccccc4)C[C@@](O)([C@@H](OC(=O)c4ccccc4)[C@H]21)C3(C)C` (relative stereo) [Docetaxel, Benzenepropanoic acid, β-(((1,1-dimethylethoxy)carbonyl)amino)-α-hydroxy-, 12b-(acetyloxy)-12-(benzoyloxy)-2a,3,4,4a,5,6,9,10,11,12,12a,12b-dodecahydro-4,6,11-trihydroxy-4a,8,13,13-tetramethyl-5-oxo-7,11-methano-1H-cyclodeca(3,4)benz(1,2-b)oxet-9-yl ester trihydrate, (2aR-(2aα,4β,4aβ,6β,9(αR*,βS),11α,12α,12aα,12bα))-], the “Fixed effect Estimate, Grade 2” value ([1]; mixed model, longitudinal Toxicity Index in all cycles, Pr > |t| 0.0027) was −0.9840, the “Fixed effect Estimate, Grade 2” value ([1]; mixed model, longitudinal Toxicity Index in first five cycles, Pr > |t| 0.0106) was −1.0426 and the “Para. Est., TI3 vs Site (multivariable)” value ([1]; multivariable regression with MAPT_H13, cycle 3, Prostate Gland = 1, Others = 0, P-value 0.001) was 2.365. For the same compound, the “Para. Est., TI3 vs Grade” value ([1]; univariate linear regression, cycle 3, Poorly Dif = 1, Others = 0, P-value 0.006) was −1.609, the “Para. Est., TI3 vs Site” value ([1]; univariate linear regression, cycle 3, Prostate Gland = 1, Others = 0, P-value 0.046) was 1.962 and the “Fixed effect Estimate, COL6_2 (MAPT_H1)” value (MAPT; mixed model, longitudinal Toxicity Index in all cycles, Pr > |t| 0.0029) was 1.1286. For the same compound, the “Fixed effect Estimate, COL6_2 (MAPT_H1)” value (MAPT; mixed model, longitudinal Toxicity Index in first five cycles, Pr > |t| 0.0170) was 1.1407, the “Para. Est., TI4 vs MAPT_H2 (multivariable)” value (MAPT; multivariable analysis best model, cycle 4, rs17652121, TT = 1, CC/TC = 0, P-value 0.029) was −0.900 and the “Para. Est., TI3 vs MAPT_H13 (multivariable)” value (MAPT; multivariable regression with Site, cycle 3, rs3785883, GG = 1, AG = 0, P-value 0.003) was 1.408. The “Para. Est., TI3 vs MAPT_H1_H21” value (MAPT; univariate linear regression, cycle 3, rs754512, AA = 1, TA/TT = 0, P-value 0.010) was −1.107, the “Para. Est., TI3 vs MAPT_H1_H22” value (MAPT; univariate linear regression, cycle 3, rs767058, AA = 1, AG/GG = 0, P-value 0.006) was −1.166 and the “Para. Est., TI3 vs MAPT_H1_H23” value (MAPT; univariate linear regression, cycle 3, rs2055794, GG = 1, AA/AG = 0, P-value 0.010) was −1.107. The “Para. Est., TI3 vs MAPT_H13” value (MAPT; univariate linear regression, cycle 3, rs3785883, GG = 1, AG = 0, P-value 0.013) was −1.245, the “Para. Est., TI3 vs MAPT_H2” value (MAPT; univariate linear regression, cycle 3, rs17652121, TT = 1, CC/TC = 0, P-value 0.006) was −1.166 and the “Para. Est., TI4 vs MAPT_H1_H21” value (MAPT; univariate linear regression, cycle 4, rs754512, AA = 1, TA/TT = 0, P-value 0.023) was −0.953. The “Para. Est., TI4 vs MAPT_H1_H22” value (MAPT; univariate linear regression, cycle 4, rs767058, AA = 1, AG/GG = 0, P-value 0.029) was −0.900, the “Para. Est., TI4 vs MAPT_H1_H23” value (MAPT; univariate linear regression, cycle 4, rs2055794, GG = 1, AA/AG = 0, P-value 0.023) was −0.953 and the “Para. Est., TI4 vs MAPT_H2” value (MAPT; univariate linear regression, cycle 4, rs17652121, TT = 1, CC/TC = 0, P-value 0.029) was −0.900.

With `CC(=O)O[C@H]1C(=O)[C@@]2(C)[C@H]([C@H](OC(=O)c3ccccc3)[C@]3(O)C[C@H](OC(=O)[C@H](O)[C@@H](NC(=O)c4ccccc4)c4ccccc4)C(C)=C1C3(C)C)[C@]1(OC(C)=O)CO[C@@H]1C[C@@H]2O` [Paclitaxel, (2aR,4S,4aS,6R,9S,11S,12S,12aR,12bS)-1,2a,3,4,4a,6,9,10,11,12,12a,12b-Dodecahydro-4,6,9,11,12,12b-hexahydroxy-4a,8,13,13-tetramethyl-7,11-methano-5H-cyclodeca(3,4)benz(1,2-b)oxet-5-one 6,12b-diacetate, 12-benzoate, 9-ester with (2R,3S)-N-benzoyl-3-phenylisoserine] the “Fixed effect Estimate, Received Dose2” value ([1]; mixed model, longitudinal Toxicity Index in all 21 cycles, Pr > |t| 0.0244) was 0.002363, the “Coef, regression TI1 versus CYP2C8_2_31, TUBB2: predictor CYP2C8_2_31” value (CYP2C8 gene locus; 30 recipient subjects, rs1058932, heterozygous TC vs homozygous CC, P 0.020) was −1.1100 and the “Para. Est., TI4 vs CYP2C8_1C (multivariable)” value (CYP2C8 gene locus; multivariable analysis best model, cycle 4, rs17110453, AA = 1, CA = 0, P-value 0.033) was −1.267. The “Para. Est., TI1 vs CYP2C8_2_31 (multivariable)” value (CYP2C8 gene locus; multivariable regression with TUBB2, cycle 1, rs1058932, CC = 1, TC = 0, P-value 0.020) was −1.110, the “Para. Est., TI1 vs CYP2C8_2_31” value (CYP2C8 gene locus; univariate linear regression, cycle 1, rs1058932, CC = 1, TC = 0, P-value 0.021) was −1.168 and the “Para. Est., TI4 vs CYP2C8_1C” value (CYP2C8 gene locus; univariate linear regression, cycle 4, rs17110453, AA = 1, CA = 0, P-value 0.033) was −1.267. The “Fixed effect Estimate, COL18_3 (MAPT_H14)” value (MAPT; mixed model for repeated measurements, longitudinal Toxicity Index in first five cycles, Pr > |t| 0.0118) was 0.8918, the “Fixed effect Estimate, COL18_3 (MAPT_H14)” value (MAPT; mixed model, longitudinal Toxicity Index in all 21 cycles, Pr > |t| 0.0114) was 0.6989 and the “Para. Est., TI3 vs MAPT_H14 (multivariable)” value (MAPT; multivariable analysis best model, cycle 3, rs242557, TC = 1, CC/TT = 0, P-value 0.012) was 1.236. The “Para. Est., TI1 vs MAPT_H14” value (MAPT; univariate linear regression, cycle 1, rs242557, TC = 1, CC/TT = 0, P-value 0.016) was 1.151, the “Para. Est., TI3 vs MAPT_H14” value (MAPT; univariate linear regression, cycle 3, rs242557, TC = 1, CC/TT = 0, P-value 0.012) was 1.236 and the “Coef, regression TI1 versus CYP2C8_2_31, TUBB2: predictor TUBB2” value (TUBB gene locus; 30 recipient subjects, rs3132584, heterozygous CA vs combined AA and CC, P 0.039) was −0.9135. For the same compound, the “Para. Est., TI2 vs TUBB4 (multivariable)” value (TUBB gene locus; multivariable analysis best model, cycle 2, rs1061397, CC = 1, TC/TT = 0, P-value 0.037) was −1.185, the “Para. Est., TI1 vs TUBB2 (multivariable)” value (TUBB gene locus; multivariable regression with CYP2C8_2_31, cycle 1, rs3132584, CA = 1, CC/AA = 0, P-value 0.039) was 0.914 and the “Para. Est., TI1 vs TUBB1” value (TUBB gene locus; univariate linear regression, cycle 1, rs8233, AG = 1, AA/GG = 0, P-value 0.042) was 0.975. For the same compound, the “Para. Est., TI1 vs TUBB2” value (TUBB gene locus; univariate linear regression, cycle 1, rs3132584, CA = 1, CC/AA = 0, P-value 0.042) was 0.975, the “Para. Est., TI2 vs TUBB3” value (TUBB gene locus; univariate linear regression, cycle 2, rs25527, CC = 1, TC/TT = 0, P-value 0.047) was −1.062 and the “Para. Est., TI2 vs TUBB4” value (TUBB gene locus; univariate linear regression, cycle 2, rs1061397, CC = 1, TC/TT = 0, P-value 0.037) was −1.185.
